Data from ChEMBL document CHEMBL3217431, “Synthesis, in silico screening and bioevaluation of dispiro-cycloalkanones as antitubercular and mycobacterial NAD+-dependent DNA ligase inhibitors” (Medchemcomm, 2011).
≈ marks a conversion by molar mass, not a printed value.

Test system: Escherichia coli
Assay: In vivo antibacterial activity against Escherichia coli GR501 harboring lig251 temperature-sensitive mutant gene transformed with plasmid encoding Mycobacterium tuberculosis NAD+ DNA ligase assessed as growth inhibition after 20 hrs by microdilution assay
Type: functional
Conditions: GR501, 20 h

Row | Structure (SMILES) | MIC [µM]
1 | O=C1C2(CCCC13CC3c1ccc(Br)cc1)CC2c1ccc(Br)cc1 (configuration not stated) | 52.1 (≈ 24 µg/mL)
2 | O=C1C2(CCCC13CC3c1ccc(F)cc1)CC2c1ccc(F)cc1 (configuration not stated) | 44.3 (≈ 15 µg/mL)
